Measured values: patent US11806359B2 (priority 2020, dated 2023)

Assays:
Type in all cases: cell-based
SARS-CoV-2 = assay: Direct antiviral activity against SARS-CoV-2, percent infected cells by immunostaining (Example 29)
Method: The results are depicted in FIGS. 24A and 24B. […] Potential methods of action include inhibition of viral replication, assembly, and/or egress.
Growth media was removed from confluent monolayers of approximately 10^6 Vero CCL81 cells in 6-well plates. Oleandrin was serially diluted in culture media and added to […]. The growth media was replaced with 200 μl of maintenance media containing either 1.0 μg/ml, 0.5 μg/ml, 100 ng/ml, 50 ng/ml, 10 ng/ml, or 5 ng/ml oleandrin, or matched DMSO-only controls. The plates were incubated at 37° C. for about 30 minutes prior to addition of virus.
SARS-CoV-2 virus was added to Oleandrin treated cells and untreated cells at a MOI (multiplicity of infection) of 0.4 (entry assay) or 0.02 (replication assay). Oleandrin remained in the wells during a 1 hr incubation at 37° C.
After 1 hr absorption, inoculation media was removed and washed 1 time with PBS (standard phosphate buffer saline).
Media alone (no oleandrin) was added back to oleandrin-treated wells designated as “Pretreatment” on data slides. Media with indicated concentrations of oleandrin was added back to wells designated as “Duration” on data slides.
Plates were fixed at either 24 (entry assay) or 48 (replication assay) hours post-infection and immunostained with virus-specific antibody and fluorescently labeled secondary antibody.
Cells were imaged using an Operetta and data was analyzed using custom algorithms in Harmonia software to determine the percent of infected cells in each well.

[1] = In vitro cellular assay for release of lactate dehydrogenase
Method: Proof of the safety of the oleandrin-containing composition was further provided by in vitro cellular assay for determining the release of lactate dehydrogenase after exposure of said cells to solutions containing different concentrations of oleandrin. It was determined that up to concentrations of 1 microg/mL, there was no additional toxicity over control vehicle.

Ebolavirus (EBOV/Kik) = conditions: based on the oleandrin content; final concentration of compositions 20 microg/mL

For `CO[C@H]1C[C@H](O[C@H]2CC[C@@]3(C)[C@H](CC[C@@H]4[C@@H]3CC[C@]3(C)[C@@H](C5=CC(=O)OC5)[C@@H](OC(C)=O)C[C@]43O)C2)O[C@@H](C)[C@@H]1O` [oleandrin], the antiviral activity (SARS-CoV-2; 48-h, oleandrin only during the absorption phase (Pre-treatment data)) was “minimal antiviral activity”, the viral infection (SARS-CoV-2; 48-h, treated for the duration of the assay) was “significantly limited viral infection” and the “virus entry and/or viral replication” value (SARS-CoV-2; 24 h, treated for the duration of the assay) was “significantly limited virus entry and/or viral replication”. For the same compound, the “concentration up to which no additional toxicity over control vehicle” value [1] was no more than 1000 ng/mL and the “efficacy against Ebolavirus” value (Ebolavirus (EBOV/Kik)) was “efficacious”.
